According to patent US7375243B2, “Method for preparation of amino acid chelate” (MD Bioalpha Co., Ltd., priority 2002, dated 2008):

What was measured:
[1] = system: calcium-starved rats; experiment: Test of the degree of absorption of Ca-supplying agents in calcium-starved rats; conditions: for Length of fibula / Weight of fibula: Ca-starved rats, Ca-supplying agent orally for one week with Ca-free diet
Procedure: 3-week old Sprague-Dawley male rats (Daehan Biolink Co., Ltd., Korea) were employed for the present experiment after adjustment to an elementary diet These rats were divided into a normal group and an experimental group. The diet for the normal group (“normal diet”) was prepared based upon AIN-76 diet composition, whereas the diet for the experimental group (“Ca-flee diet” or “experimental diet”) was prepared by replacing a mineral mixture in the normal diet composition with a Ca deficient mineral mixture. […] These Ca-supplying agents were orally administered to each group along with the Ca-free diet for one week before the rats were sacrificed.
The concentration of Ca-supplying agent in the oral administration was ⅓ of the concentration of calcium in AIN-76 mineral mixture, which corresponds to 10 times the recommended amount for adult males. 3× distilled water was used for preparation of the experimental diet and was also was fed to rats for maintenance. The compositions of diets administered to the normal group and experimental groups, respectively, are described in TABLE 8 as below.
The abdomens of the rats were cut open under ether anesthesia, then blood was harvested from abdominal aorta, and major organs such as liver, kidney, spleen, etc. were […], followed by the extraction of fibula. The blood was centrifuged at 3000 rpm for 10 minutes to separate serum. Each organ and bone was trimmed and washed with normal saline and moisture on the surface thereof was removed to measure the weight and length thereof.
The content of calcium in serum and urine was measured by Calcium Reagent Arsenazo III kit (Sigma Corp., U.S.A). In order to measure the content of calcium in feces, the feces (sample) was put in a Pyrex beaker and the weight thereof was measured to 0.1 mg unit, then 5 ml of HNO3 and 2 ml of H2O2 were added and the beaker was left uncovered on a hot plate. The acid-digested sample was cooled and 2 ml of H2O2 was added thereto, followed by heating. Next, the acid was sufficiently volatilized to make the concentration of HNO3 to 1-5%, followed by the analysis with ICP-AES (inductively Coupled Plasma Atomic Emission Spectrometer). The condition for analysis is given below. • Model: Jobin Yvon 138 Ultrace • Source: Argon plasma (6000 K) • Spectral range: 160-800 nm • Resolution: 0.005 nm (UV) • Detection limit: 1×ppb˜100×ppb • Wavelength for analysis: 393.366 nm 3. Effect On Weight of Major Organs

[2] = system: Fe-starved rats; experiment: Effect of Fe-supplying agents on the absorption of Fe in Fe-starved rats
Procedure: 3-week old Sprague-Dawley male rats (Daehan Biolink Co., Ltd., Korea) were employed for the present experiment after application of an elementary diet for one week. These rats were divided into a normal group and an experimental group. The diet for the normal group (“normal diet”) was prepared based upon AIN-76 diet composition, whereas the diet for the experimental group (“Fe-free diet” or “experimental diet”) was prepared by replacing a mineral mixture in the normal diet composition with a Fe-deficient mineral mixture. […] These Fe-supplying agents were orally administered to rats along with the experimental diet for one week before the rats were sacrificed.
The concentration of Fe-supplying agent for the oral administration was 10 times the recommended amount for adult males. 3× distilled water was used for preparation of the experimental diet and was fed to rats for maintenance. The compositions of diets administered to the normal group and experimental group, respectively, are described in TABLE 14 below.
Rats were adapted to a cage for one week before the start of the experiment, and their feces were collected for a final 3 days. On the final day, the abdomen was cut open under ether anesthesia, then blood was harvested from abdominal aorta, and major organs such as liver, kidney, spleen, etc. were extracted. […] Each organ was trimmed and washed with normal saline, then moisture on the surface thereof was removed to measure the weight and length.
CBC (Complete Blood Count: Red blood cell; RBC, white blood cell; WBC, Hematocrits; HCT, Hemoglobin; Hb) was measured from the anticoagulated blood, and IRON and TIBC Total Iron Binding Capacity) were measured from the blood serum. CBC was measured by an automatic analyzer (ADVIA 120, Bayer, U.S.A). As reagents, Isoton III (Beckman Coulter, U.S.A), Coulter clenz (Beckman Coulter), Lyse S III (Beckman Coulter), 4% sodium hypochloride-solution (Beckman Coulter) and 4C-plus (Beckman Coulter), Scatter Pak (Beckman Coulter) were used.
All data obtained in the present experiment were expressed with the mean standard error using the SAS program. T-test in each group was carried out at a range of P<0.05 by Duncan's multiple comparison test.

[3] = Stability of amino acid chelate on storage in aqueous solutions; type: physicochemical; conditions: distilled water and buffer at pH 3, 5, 7, 9, commercial beverages, cosmetics, ALGI; stored at 4, 25 and 50° C. for 3 months
Procedure: The following experiment was carried out to ascertain the stability of amino acid chelate compound, obtained in EXAMPLE 1, on its storage in an aqueous solution for a long time.
• 1) preparation of samples by adding the above amino acid chelate compound into distilled water adjusted to pH 3, 5, 7 and 9, respectively. • 2) preparation of samples by adding the above amino acid chelate compound into solutions adjusted to pH 3, 5, 7 and 9 using buffer, respectively. • 3) preparation of samples by adding the above amino acid chelate compound into selected commercially available beverages (MIEROFIBER® (Hyundai Pharm., Korea), BACCHUS® (Donga Pharm., Korea) and orange juice (HaeTae Beverage Corp., Korea)), respectively. • 4) preparation of samples by adding the above amino acid chelate compound into selected commercially available cosmetics (ISA KNOX® (LG Chemical Corp., Korea), MAMONDE® (AmorePacific Corp., Korea)) • 5) preparation of samples by adding the above amino acid chelate compound into ALGI® (GG Tech. Co. Ltd., Korea) as a plant growth-accelerating agent
The above samples were stored at 4, 25 and 50° C., respectively, and then tested for any precipitation or change in pH. […]

[4] = Fe-starved rats, oral for one week

## O=C([O-])[O-].[Ca+2] [CaCO3]
[1]
  Length of fibula: 30.03 ± 1.10 mm
  Weight of fibula: 0.332 ± 0.033 g
[1]; rat, in vivo, po
  Concentration of calcium in serum: 9.13 ± 0.21 mg/dL
  Concentration of calcium in urine: 0.22 ± 0.01 mg/dL
  Concentration of serum-calcium in blood collected from eyeball: 8.52 ± 0.27 mg/dL
  Kidney weight: 8.60 ± 0.40 mg/BW
  Spleen weight: 3.00 ± 0.00 mg/BW

## Heme iron
[2]; [4]
  HCT: 36.11 ± 0.89%
  RBC: 7.01 ± 0.16 ×10^6/mm^3
  TIBC (total iron binding capacity) in serum: 824.63 ± 11.60 µg/dL
  TS (transferrin saturation): 17.07%
  WBC: 6.12 ± 0.37 ×10^3/mm^3
[2]; rat, in vivo, po
  IRON in serum: 140.8. ± 25.55 μg/dl
  Kidney weight: 7.20 ± 0.13 mg/BW
  Spleen weight: 2.78 ± 0.15 mg/BW

## Seaweed Calcium-Glutamic Acid Chelate [EXAMPLE 1]
[3]
  precipitation or change in pH: no precipitation or remarkable change in pH

## calcium-aspartic acid chelate [Asp-Ca]
[1]
  Length of fibula: 30.88 ± 1.87 mm
  Weight of fibula: 0.327 ± 0.031 g

## iron-aspartic acid chelate [Fe-Asp]
[2]; [4]
  RBC: 7.32 ± 0.35 ×10^6/mm^3
  TIBC (total iron binding capacity) in serum: 735.44 ± 9.30 µg/dL
  WBC: 6.02 ± 0.46 ×10^3/mm^3

## seaweed calcium [SW-Ca]
[1]; rat, in vivo, po
  Concentration of calcium in serum: 10.44 ± 0.07 mg/dL
  Concentration of calcium in urine: 0.32 ± 0.02 mg/dL
  Kidney weight: 8.20 ± 0.20 mg/BW
  Spleen weight: 3.00 ± 0.32 mg/BW
